Test: solvent given as SMILES

O=c1c2ccccc2sc2ccccc12
Details | solvation free energy, 298 K [kcal/mol]
in C1CCOC1 | -13.2
in C1COCCO1 | -12.9
in CC(C)CC(C)(C)C | -10.7
in CC(C)CCO | -11.8
in CC(C)CO | -11.7
in CC(C)O | -11.9
in CC(C)OC(C)C | -11.6
in CC(C)OCCO | -12.3
in CCC(C)O | -11.8
in CCCC(=O)OC | -12.5
in CCCC(C)CO | -11.9
in CCCC(C)O | -11.9
in CCCCC(CC)CO | -12
in CCCCCC | -10.9
in CCCCCCC | -11
in CCCCCCCC | -11.1
in CCCCCCCCC=CCCCCCCCC(=O)OCC(COC(=O)CCCCCCCC=CCCCCCCCC)OC(=O)CCCCCCCC=CCCCCCCCC | -11.8
in CCCCCCCCCCO | -12.1
in CCCCCCCCO | -12.1
in CCCCCCCO | -12
in CCCCCCO | -12
in CCCCCO | -11.9
in CCCCCOC(C)=O | -12.4
in CCCCO | -11.9
in CCCCOC(C)=O | -12.4
in CCCCOCCCC | -11.7
in CCCCOCCO | -12.4
in CCCO | -11.8
in CCCOCCO | -12.4
in CCO | -11.9
in CCOC(C)=O | -12.5
in CCOCCO | -12.4
in CO | -11.5
in COC(C)(C)C | -11.9
in COC(C)=O | -12.6
in Cc1ccc(C)cc1 | -12.6
in Cc1cccc(C)c1 | -12.6
in Cc1ccccc1C | -12.7
in O | -6.9

Cc1ccc(N)cc1
Details | solvation free energy, 298 K [kcal/mol]
in CC(C)CC(C)(C)C | -6.29
in CCCCCC | -6.06
in CCCCCCC | -6.14
in CCCCCCCC | -6.29
in Cc1cccc(C)c1 | -7.26
in Cc1ccccc1C | -7.27

ClC1=C(Cl)C2(Cl)C3C(Cl)CC(Cl)C3C1(Cl)C2(Cl)Cl (centres undefined)
Details | solvation free energy, 298 K [kcal/mol]
in O | -3.44

Clc1c(Cl)c(Cl)c2ccccc2c1Cl
Details | solvation free energy, 298 K [kcal/mol]
in CCCCCCCCC=CCCCCCCCC(=O)OCC(COC(=O)CCCCCCCC=CCCCCCCCC)OC(=O)CCCCCCCC=CCCCCCCCC | -9.56
in O | -2.69

O=Cc1cccnc1
Details | solvation free energy, 298 K [kcal/mol]
in O | -7.1

CN(C)C(=O)Nc1ccc(Cl)c(Cl)c1
Details | solvation free energy, 298 K [kcal/mol]
in CC(C)CCO | -14.6
in CCCC(C)O | -14.5
in CCCCCl | -13.3
in CCCCOC(C)=O | -14.5
in CCCCOCCCC | -12.6
in CCOC(C)=O | -14.6
in COC(C)=O | -14.6
in ClC(Cl)(Cl)Cl | -12.4
in ClC(Cl)Cl | -14.5
in ClCCCl | -14.3
in ClCCl | -14.2
in Clc1ccccc1 | -13.6
in O | -10.9

CCCCCCCO
Details | solvation free energy, 298 K [kcal/mol]
in CC(C)CC(C)(C)C | -5.82
in CCCCCC | -5.59
in CCCCCCC | -5.59
in CCCCCCCCCCCCCCCC | -5.43
in CCCCCCO | -8.08
in CO | -7.6
in NC=O | -6.38
in O | -4.24

N#Cc1cccc(O)c1
Details | solvation free energy, 298 K [kcal/mol]
in O | -9.65

CC(=O)NS(=O)(=O)c1ccc(N)cc1
Details | solvation free energy, 298 K [kcal/mol]
in O | -18.4

CCC(C)Br (centres undefined)
Details | solvation free energy, 298 K [kcal/mol]
in C=CCCCCCCCCCCCCCC | -3.96
in O | -0.27
